Tests used:
β-adrenoceptor = experiment: adequacy of betablockade checked with isoproterenol test dose in the anaesthetized open chest cat; format: in vivo; conditions: LT 50 μg/kg i.v.; isoproterenol 0.05 μg/kg before, 0.1 μg/kg after betablockade
Experimental: Cats of 2 to 4 kg of body weight were anaesthetized with chloralose urethane (43 and 430 mg/kg) and ventilated with a Loosco M.K.II infant ventilator with positive end-expiratory pressure. Catheters were inserted into the femoral artery and vein. The thorax was opened through the left fourth intercostal space, the aorta was freed of its adventitia and an electromagnetic flow probe was placed around it. The electromagnetic flow signal and its first derivative, acceleration of the blood in the aorta, mean aortic flow, phasic and mean aortic blood pressure, heart rate and mean right atrial pressure were recorded on a Beckmann R612 8 channel recorder. For flow measurements a Narco RT500 flowmeter was used. Differentiation was performed by a HSE 401 differentiator. The flow signal, which is a measurement of the velocity of blood in the aortic root was electronically integrated to obtain mean aortic flow. At the same time this signal was fed into the differentiator mentioned. The output of the differentiator, acceleration of blood in the aorta, is an indicator of myocardial function and was used instead of dp/dt (R. R. Rushmer, Circulation 29 [1964] 268, G. C. Van den Bos et al., Cardiovascular Research 7 [1973] 834), applied to cats by R. P. Hof and A. Hof, Journal of Pharmacological Methods, accepted for publication in 1981. […] The samples were counted in a Packard Mod. […]

[1] = molecular target: T1, calcium-induced contraction of isolated dog coronary arteries (Canis lupus familiaris, UniProt A0A8I3QY31); experiment: calcium antagonism: calcium-induced contraction of isolated dog coronary arteries in depolarizing solution; format: cell-based; conditions: helical strips of dog coronary artery, 100 mM KCl solution, cumulative CaCl2 response curves, drug added 30 min before CaCl2; read-out: pA2 of calcium antagonism (converted)
T1 construct: Branches of the ventral interventricular artery (about 500 to 1000 μm outer diameter) were dissected and cut into helical strips; from tissue; host or cells: helical strips of branches of the ventral interventricular (coronary) artery of mongrel dogs
T1 sequence (A0A8I3QY31 1-2188): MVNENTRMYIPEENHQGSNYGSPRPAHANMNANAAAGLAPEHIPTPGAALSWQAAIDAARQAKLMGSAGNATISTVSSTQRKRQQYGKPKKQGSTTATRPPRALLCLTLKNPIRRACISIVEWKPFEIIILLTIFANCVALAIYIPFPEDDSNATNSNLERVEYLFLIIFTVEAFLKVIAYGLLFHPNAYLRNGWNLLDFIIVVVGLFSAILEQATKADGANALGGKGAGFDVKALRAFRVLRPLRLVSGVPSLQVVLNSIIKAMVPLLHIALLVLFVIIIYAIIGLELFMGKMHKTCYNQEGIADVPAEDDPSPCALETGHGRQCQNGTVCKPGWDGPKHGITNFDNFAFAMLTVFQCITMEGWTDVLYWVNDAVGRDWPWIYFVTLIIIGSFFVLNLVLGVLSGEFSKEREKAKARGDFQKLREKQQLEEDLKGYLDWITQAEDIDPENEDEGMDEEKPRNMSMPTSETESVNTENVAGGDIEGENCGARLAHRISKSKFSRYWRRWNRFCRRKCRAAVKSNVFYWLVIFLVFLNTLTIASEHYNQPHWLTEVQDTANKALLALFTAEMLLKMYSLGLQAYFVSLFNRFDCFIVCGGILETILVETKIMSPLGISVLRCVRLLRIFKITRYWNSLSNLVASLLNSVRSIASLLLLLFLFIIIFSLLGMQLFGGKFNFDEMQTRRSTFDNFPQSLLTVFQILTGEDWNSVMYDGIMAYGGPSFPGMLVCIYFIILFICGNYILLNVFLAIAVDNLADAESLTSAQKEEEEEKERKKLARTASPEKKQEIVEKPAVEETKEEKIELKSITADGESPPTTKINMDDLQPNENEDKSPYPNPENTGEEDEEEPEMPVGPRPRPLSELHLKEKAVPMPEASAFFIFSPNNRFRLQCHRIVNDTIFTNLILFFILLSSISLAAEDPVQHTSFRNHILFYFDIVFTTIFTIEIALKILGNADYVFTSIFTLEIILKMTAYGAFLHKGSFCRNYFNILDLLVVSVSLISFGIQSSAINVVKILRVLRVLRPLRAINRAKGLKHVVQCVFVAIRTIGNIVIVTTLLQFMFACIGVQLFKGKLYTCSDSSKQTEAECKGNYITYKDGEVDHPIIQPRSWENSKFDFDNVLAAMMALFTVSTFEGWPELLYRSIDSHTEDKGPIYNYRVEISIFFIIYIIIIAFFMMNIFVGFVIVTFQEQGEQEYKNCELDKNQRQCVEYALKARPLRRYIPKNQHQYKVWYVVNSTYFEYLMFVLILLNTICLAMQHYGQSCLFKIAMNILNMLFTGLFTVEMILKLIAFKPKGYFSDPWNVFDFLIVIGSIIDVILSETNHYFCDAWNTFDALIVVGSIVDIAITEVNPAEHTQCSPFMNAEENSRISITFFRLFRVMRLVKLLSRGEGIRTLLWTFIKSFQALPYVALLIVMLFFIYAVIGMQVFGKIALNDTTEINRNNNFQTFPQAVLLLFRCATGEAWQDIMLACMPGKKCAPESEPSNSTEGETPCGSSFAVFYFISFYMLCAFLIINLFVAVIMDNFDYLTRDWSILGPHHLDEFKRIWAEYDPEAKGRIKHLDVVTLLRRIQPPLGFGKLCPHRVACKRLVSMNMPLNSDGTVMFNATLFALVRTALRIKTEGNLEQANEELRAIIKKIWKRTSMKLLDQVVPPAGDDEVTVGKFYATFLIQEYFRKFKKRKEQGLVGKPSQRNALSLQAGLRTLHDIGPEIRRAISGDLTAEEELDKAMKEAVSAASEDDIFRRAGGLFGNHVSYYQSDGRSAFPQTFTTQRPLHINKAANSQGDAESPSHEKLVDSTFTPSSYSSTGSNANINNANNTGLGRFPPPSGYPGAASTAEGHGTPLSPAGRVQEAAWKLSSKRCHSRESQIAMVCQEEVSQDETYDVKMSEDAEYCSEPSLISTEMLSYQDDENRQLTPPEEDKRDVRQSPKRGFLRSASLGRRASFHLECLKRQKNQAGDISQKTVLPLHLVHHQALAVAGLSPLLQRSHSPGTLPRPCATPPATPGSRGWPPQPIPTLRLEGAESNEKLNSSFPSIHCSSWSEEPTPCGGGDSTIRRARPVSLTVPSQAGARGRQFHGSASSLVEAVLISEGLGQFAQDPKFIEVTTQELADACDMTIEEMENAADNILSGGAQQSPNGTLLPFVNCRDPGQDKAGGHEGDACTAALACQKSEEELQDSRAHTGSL
Experimental: First the potency of calcium antagonism was determined on coronary arteries in vitro:
Mongrel dogs of either sex weighing between 15 and 30 kg were anaesthetized by rapid i.v. injection of pentobarbitone (50 mg/kg) and killed by i.v. injection of 100 ml of air. The heart was removed and placed in a modified Krebs-Henseleit solution (mM): NaCl 118, KCl 4.7, MgSo4 1.2, CaCl2 2.5, KH2 PO4 1.2, NaHCO3 25, glucose 11, at 37° C., gassed with 95% O2 -5% CO2. Branches of the ventral interventricular artery (about 500 to 1000 μm outer diameter) were dissected and cut into helical strips, approximately 1 to 3 mm wide and 10 mm long.
The strips were suspended in 10 ml organ baths containing Krebs-Henseleit solution at 37° C. gassed continuously with 5% CO2 in oxygen. Changes in the tension of the strips were recorded isometrically with electromechanical transducers (Statham model UC 3) and a potentiometric recorder. At the beginning of the experiments the strips were stretched to an initial tension of 500 mg and then allowed to equilibrate for 120 to 180 minutes in the bathing medium. Thereafter the Krebs-Henseleit solution was replaced by a solution containing 100 mM KCl in equimolar replacement for NaCl. Cumulative response curves for CaCl2 were established, using the method described by Van Rossum, J. M., Arch. […] The effects were expressed as percentage of the preceding response to […]. […]

[2] = test system: paced guinea pig left atrium; experiment: contractility of paced guinea pig left atria in vitro; format: cell-based; conditions: for difference between cardiodepressant concentration and the pA2 of Ca-antagonism: guinea pig atria concentration vs dog coronary artery pA2
Experimental: (§1) Then the effects on contractility of paced guinea pig left […] in vitro was measured:
(§2) Guinea pigs of either sex weighing 250 to 400 g were killed by a blow on their heads and the left atrium was rapidly dissected from the heart and suspended in a modified oxygenated Tyrode solution at 30° C. The preload was adjusted to 1 g, rectangular impulses of 10 msec. at a rate of 1 Hz were used for pacing through a platinum cathode attached to the lower end of the tissue. The tension developed was measured isometrically with a Statham UC 3 transducer.

[3] = molecular target: T2, paced guinea pig left atrium (Cavia porcellus, UniProt O35505); experiment: as above; format: cell-based; conditions: guinea pig; highest dose 0.444 μM; paced 1 Hz, 30° C.; read-out: contractile force, % of its baseline value
T2 construct: the left atrium was rapidly dissected from the heart and suspended in a modified oxygenated Tyrode solution; from tissue; host or cells: isolated left atrium of guinea pig
T2 sequence (O35505 whole entry): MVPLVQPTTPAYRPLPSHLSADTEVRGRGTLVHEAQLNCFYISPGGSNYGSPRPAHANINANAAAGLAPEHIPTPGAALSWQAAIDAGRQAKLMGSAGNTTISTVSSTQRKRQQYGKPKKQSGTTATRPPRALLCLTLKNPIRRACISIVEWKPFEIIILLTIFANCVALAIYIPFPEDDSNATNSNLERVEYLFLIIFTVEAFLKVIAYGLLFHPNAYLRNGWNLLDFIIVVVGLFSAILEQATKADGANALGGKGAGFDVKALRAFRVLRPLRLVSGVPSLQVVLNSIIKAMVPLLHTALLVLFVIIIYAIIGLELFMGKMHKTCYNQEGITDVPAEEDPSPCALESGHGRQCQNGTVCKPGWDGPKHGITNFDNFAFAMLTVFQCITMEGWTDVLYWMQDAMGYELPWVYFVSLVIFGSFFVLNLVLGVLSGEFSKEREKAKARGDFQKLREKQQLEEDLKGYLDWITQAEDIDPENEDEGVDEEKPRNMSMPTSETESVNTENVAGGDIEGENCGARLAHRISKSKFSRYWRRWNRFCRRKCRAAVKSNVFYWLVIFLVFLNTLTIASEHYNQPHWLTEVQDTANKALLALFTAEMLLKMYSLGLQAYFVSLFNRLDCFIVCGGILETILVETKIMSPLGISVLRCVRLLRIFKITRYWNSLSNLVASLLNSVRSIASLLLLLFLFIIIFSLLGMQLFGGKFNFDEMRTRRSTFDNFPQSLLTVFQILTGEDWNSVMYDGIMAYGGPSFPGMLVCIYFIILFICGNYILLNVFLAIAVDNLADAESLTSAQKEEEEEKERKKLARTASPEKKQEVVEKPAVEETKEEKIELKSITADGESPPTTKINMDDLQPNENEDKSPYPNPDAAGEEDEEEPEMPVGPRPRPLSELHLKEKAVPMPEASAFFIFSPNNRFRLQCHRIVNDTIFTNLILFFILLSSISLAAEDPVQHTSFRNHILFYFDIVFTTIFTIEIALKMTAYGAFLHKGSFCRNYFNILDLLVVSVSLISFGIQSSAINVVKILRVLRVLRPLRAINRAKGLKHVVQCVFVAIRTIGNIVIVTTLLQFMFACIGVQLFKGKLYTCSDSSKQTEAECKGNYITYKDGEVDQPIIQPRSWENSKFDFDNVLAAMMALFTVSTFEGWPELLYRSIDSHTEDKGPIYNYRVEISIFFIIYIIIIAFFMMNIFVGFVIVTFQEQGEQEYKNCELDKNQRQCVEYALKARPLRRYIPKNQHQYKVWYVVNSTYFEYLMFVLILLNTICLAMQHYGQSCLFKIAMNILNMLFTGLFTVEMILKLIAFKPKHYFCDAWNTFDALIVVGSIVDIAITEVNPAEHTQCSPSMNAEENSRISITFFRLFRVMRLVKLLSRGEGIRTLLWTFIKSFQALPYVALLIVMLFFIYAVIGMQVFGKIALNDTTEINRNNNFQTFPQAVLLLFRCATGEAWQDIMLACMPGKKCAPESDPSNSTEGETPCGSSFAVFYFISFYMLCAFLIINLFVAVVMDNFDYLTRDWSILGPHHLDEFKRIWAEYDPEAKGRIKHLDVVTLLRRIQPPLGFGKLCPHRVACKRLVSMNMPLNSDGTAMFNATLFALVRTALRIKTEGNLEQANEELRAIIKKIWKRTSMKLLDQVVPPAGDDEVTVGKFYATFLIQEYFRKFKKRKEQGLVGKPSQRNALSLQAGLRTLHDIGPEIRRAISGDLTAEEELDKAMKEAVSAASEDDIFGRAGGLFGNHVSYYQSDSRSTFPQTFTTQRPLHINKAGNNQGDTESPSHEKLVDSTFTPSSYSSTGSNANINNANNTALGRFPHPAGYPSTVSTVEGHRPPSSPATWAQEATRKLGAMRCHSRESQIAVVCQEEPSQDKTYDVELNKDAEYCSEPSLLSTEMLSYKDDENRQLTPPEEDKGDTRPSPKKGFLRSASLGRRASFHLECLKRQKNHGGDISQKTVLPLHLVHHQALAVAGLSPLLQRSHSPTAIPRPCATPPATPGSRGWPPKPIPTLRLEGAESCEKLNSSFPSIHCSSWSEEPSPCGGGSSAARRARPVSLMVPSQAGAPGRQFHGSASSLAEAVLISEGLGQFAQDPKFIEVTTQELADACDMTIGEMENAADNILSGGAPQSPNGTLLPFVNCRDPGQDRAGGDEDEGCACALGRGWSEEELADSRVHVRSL
Experimental: as §1, §2

[4] = test system: anaesthetized open chest cat; experiment: hemodynamics in the anaesthetized open chest cat (microsphere method); format: in vivo
Experimental: This observation was arrived at in the anaesthetized open chest cat as follows:
The microsphere method as described in 1967 by Rudolph, A. M. and Heymann, M. S. in Circ. Res. 21 (1967) 163 and modified by R. P. Hof, F. Wyler and G. Stalder, Basic Res. Cardial. 75, 747-756 (1980) was used. Cardiac output was calculated from the flow signal of an electromagnetic flow meter. […] This consists in sampling blood at a known flow rate into a syringe, which can be regarded as "an external organ".
This sampling is done during the time of microsphere circulation. The number of microspheres in the syringe is then determined and cardiac output can be calculated as follows:
where CO is cardiac output, Qs is flow to the syringe, Ni is the number of spheres injected and Ns is the number of spheres in the syringe.
Cats of 2 to 4 kg of body weight were anaesthetized with chloralose urethane (43 and 430 mg/kg) and ventilated with a Loosco M.K.II infant ventilator with positive end-expiratory pressure. Catheters were inserted into the femoral artery and vein. […] The electromagnetic flow signal and its first derivative, acceleration of the blood in the aorta, mean aortic flow, phasic and mean aortic blood pressure, heart rate and mean right atrial pressure were recorded on a Beckmann R612 8 channel recorder. […] The samples were counted in a Packard Mod. […]

| Structure (SMILES) | suppression of isoproterenol effects (β-adrenoceptor) | Kb [1] [nM] | difference between cardiodepressant concentration and the pA2 of Ca-antagonism [2] | activity at 0.444 µM [3] [%] | times less cardiodepressant than Verapamil for a similar degree of calcium antagonism ([2]; relative to Verapamil) | coronary blood flow ([4]; 43 μg/kg i.v., no pretreatment) | general hemodynamic parameters (acceleration of blood, cardiac output, heart rate, coronary flow) after β-blocker pretreatment ([4]; compound No. 22 43 μg/kg i.v., 60 minutes after LT 50 μg/kg i.v.) |
| --- | --- | --- | --- | --- | --- | --- | --- |
| Cc1cc2c(OCC(CNC(C)(C)C)OC(=O)c3ccccc3)cccc2[nH]1 (stereo not drawn) [LT, 4-(2-benzoyloxy-3-tert-butylaminopropoxy)-2-methylindole] | completely or almost completely suppressed | – | – | – | – | – | – |
| COc1ccc(CCN(C)CCCC(C#N)(c2ccc(OC)c(OC)c2)C(C)C)cc1OC (stereo not drawn) [Verapamil, reference compound] | – | 15.8 | about 100 fold | – | – | – | – |
| CCOC(=O)C1=C(C)NC(C)=C(C(=O)OCC)C1c1cccc2nonc12 [compound No. 22] | – | 0.0316 | about 10,000 fold | 56 | about 100 times | markedly increased | strikingly similar to those without pretreatment |

From US4510150A, “Pharmaceutical compositions effective against coronary heart disease and hypertension” (Sandoz Ltd., priority 1980, dated 1985)
